Measured values: patent US10730895B2, “Carbidopa prodrug” (AbbVie Inc., priority 2014, dated 2020)

Legend:
[1] = 1-day stability study of individual prodrugs in aqueous solution; format: physicochemical; details: aqueous solution 80 μg/mL, ambient storage, pH 7.0
Experimental: The L-dopa phosphate prodrugs and the carbidopa phosphate prodrugs were evaluated in a stability study.

[2] = 1-day stability study, diphosphate combination solution; format: physicochemical; details: combined solution L-dopa 3′,4′-diphosphate 35 mg/mL + carbidopa 3′,4′-diphosphate 8.7 mg/mL, pH 6.2, room temperature, nitrogen purged
Experimental: In addition, a solution combining the diphosphates of each compound (L-dopa 3′, 4′-diphosphate at 35 mg/mL and carbidopa 3′, 4′-diphosphate at 8.7 mg/mL) was monitored over one day at room temperature. This sample was purged with nitrogen to remove oxygen.

[3] = Solubility study in water by visual assessment; format: physicochemical; details: thermodynamic from solid; water, ambient, pH 5.5; amorphous
Experimental: The L-dopa phosphate prodrugs and the carbidopa phosphate prodrugs were evaluated in a solubility study. The solubility values of the phosphate prodrugs in water under ambient conditions were determined by visual assessment. Table 13-A reports the results of the study, including the measured values for L-dopa and carbidopa.

[4] = In vitro bioconversion study, blood (human); format: in vitro ADME
Experimental: (§1) In brief, the L-dopa and carbidopa phosphate prodrugs (2.5 ug/mL) were incubated with tissue homogenate or fractions from rats, mini-pigs, or human, including blood, skin homogenate (3 mg/mL), liver microsomes (1 mg/mL), liver S9 fraction (1 mg/mL), kidney S9 fraction (1 mg/mL), and intestine S9 fractions (1 mg/mL). The reaction mixtures were incubated at 37° C. for 5 to 6 time points within 1 to 2 hours. At the end of each time point, the reaction mixtures were quenched by 2 to 3 volumes of 5% trichloroacetic acid in water. After quenching, the mixtures were centrifuged at 3000 rpm for 20 minutes, and the supernatants were analyzed by LC-MS for quantitation of the prodrug, L-dopa or carbidopa. The in vitro bioconversion was assessed by monitoring both time-dependent depletion of the prodrug and the formation of the corresponding L-dopa or carbidopa.

[5] = In vitro bioconversion study, blood (rat); format: in vitro ADME
Experimental: as §1

[6] = In vitro bioconversion study, blood (mini-pig); format: in vitro ADME
Experimental: as §1

[7] = In vitro bioconversion study, skin homogenates (human); format: in vitro ADME
Experimental: (§2) The in vitro bioconversion of the L-dopa phosphate prodrugs to L-dopa and the carbidopa phosphate prodrugs to carbidopa was evaluated in several studies. In brief, the L-dopa and carbidopa phosphate prodrugs (2.5 ug/mL) were incubated with tissue homogenate or fractions from rats, mini-pigs, or human, including blood, skin homogenate (3 mg/mL), liver microsomes (1 mg/mL), liver S9 fraction (1 mg/mL), kidney S9 fraction (1 mg/mL), and intestine S9 fractions (1 mg/mL). The reaction mixtures were incubated at 37° C. for 5 to 6 time points within 1 to 2 hours. At the end of each time point, the reaction mixtures were quenched by 2 to 3 volumes of 5% trichloroacetic acid in water. After quenching, the mixtures were centrifuged at 3000 rpm for 20 minutes, and the supernatants were analyzed by LC-MS for quantitation of the prodrug, L-dopa or carbidopa. The in vitro bioconversion was assessed by monitoring both time-dependent depletion of the prodrug and the formation of the corresponding L-dopa or carbidopa.

[8] = In vitro bioconversion study, skin homogenates (rat); format: in vitro ADME
Experimental: as §1

[9] = In vitro bioconversion study, skin homogenates (mini-pig); format: in vitro ADME
Experimental: as §1

[10] = In vitro bioconversion study, human liver microsomes; format: in vitro ADME; details: human liver microsomes 1 mg/mL
Experimental: as §2

[11] = In vitro bioconversion study, liver S9 fraction (rat); format: in vitro ADME; details: rat liver S9 fraction 1 mg/mL
Experimental: as §2

[12] = In vitro bioconversion study, liver S9 fraction (mini-pig); format: in vitro ADME; details: mini-pig liver S9 fraction 1 mg/mL
Experimental: as §2

[13] = In vitro bioconversion study, liver S9 fraction (human); format: in vitro ADME; details: human liver S9 fraction 1 mg/mL
Experimental: as §2

[14] = In vitro bioconversion study, kidney S9 fraction (rat); format: in vitro ADME; details: rat kidney S9 fraction 1 mg/mL
Experimental: as §2

[15] = In vitro bioconversion study, kidney S9 fraction (human); format: in vitro ADME; details: human kidney S9 fraction 1 mg/mL
Experimental: as §2

[16] = In vitro bioconversion study, intestinal S9 fractions (human); format: in vitro ADME
Experimental: as §2

[17] = In vitro bioconversion study, intestinal S9 fractions (rat); format: in vitro ADME
Experimental: as §2

[18] = Pharmacokinetic study in rats, individual prodrug IV or SC; format: in vivo, Sprague-Dawley rats; details: rat, dose 8.5 mg/kg
Experimental: For comparison, a rat pharmacokinetics study with L-dopa and carbidopa was conducted to help assess the in vivo conversion of the prodrugs. The study design and measured exposures of L-dopa and carbidopa are summarized in Tables 16-A and 16-B, respectively. In brief, groups of three male Sprague-Dawley rats were given (1) L-dopa and carbidopa in aqueous solution, or (2) the individual prodrug in aqueuous solution intravenously or subcutaneously. Blood samples were collected at multiple time points over 24 hours into a collection tube containing NaAsO4, EDTA, and ascorbic acid. […] The supernatants were subjected to LC-MS analysis for quantitation of prodrug, L-dopa or carbidopa.

[19] = Local tolerability, single SC bolus in rats; format: in vivo; details: concentrations up to 125 mg/mL

N[C@@H](Cc1ccc(OP(=O)(O)O)c(OP(=O)(O)O)c1)C(=O)O [L-dopa 3′,4′-diphosphate]
% Remaining After One Day [1]: >99% | % Remaining After One Day [2]: >99% | solubility [3]: > 330 mg/mL | L-Dopa or Carbidopa Formation [4]: Yes | half-life at 2.5 ug/mL ([4]; prodrug 2.5 ug/mL, 37° C.): 2.3 h | L-Dopa or Carbidopa Formation [5]: Yes | half-life at 2.5 ug/mL ([5]; prodrug 2.5 ug/mL, 37° C.): 6 min | L-Dopa or Carbidopa Formation [6]: Yes | half-life at 2.5 ug/mL ([6]; minipig, prodrug 2.5 ug/mL, 37° C.): 2.08 h | L-Dopa or Carbidopa Formation ([7]; human skin homogenate): No | T1/2 ([7]; human skin homogenate 3 mg/mL, 37° C.): stable | L-Dopa or Carbidopa Formation ([8]; rat skin homogenate): No | T1/2 ([8]; rat skin homogenate 3 mg/mL, 37° C.): stable | L-Dopa or Carbidopa Formation ([9]; mini-pig skin homogenate): No | T1/2 ([9]; mini-pig skin homogenate 3 mg/mL, 37° C.): stable | stability and L-dopa or carbidopa formation [10]: stable without formation of L-dopa or carbidopa observed | stability and L-dopa or carbidopa formation [11]: stable without formation of L-dopa or carbidopa observed | stability and L-dopa or carbidopa formation [12]: stable without formation of L-dopa or carbidopa observed | stability and L-dopa or carbidopa formation [13]: stable without formation of L-dopa or carbidopa observed | stability and L-dopa or carbidopa formation [14]: stable without formation of L-dopa or carbidopa observed | stability and L-dopa or carbidopa formation [15]: stable without formation of L-dopa or carbidopa observed | L-Dopa or Carbidopa Formation ([16]; human intestinal S9 fraction): Yes | half-life at 2.5 ug/mL ([16]; human intestinal S9 fraction 1 mg/mL): 1.53 h | L-Dopa or Carbidopa Formation ([17]; rat intestinal S9 fraction): Yes | half-life at 2.5 ug/mL ([17]; rat intestinal S9 fraction 1 mg/mL): 0.903 h | Estimated Conversion % (Based on L-dopa AUC) ([18]; IV): >100% | Estimated Conversion % (Based on L-dopa AUC) ([18]; SC): >100% | local intolerance (clinical signs, microscopic findings) [19]: no adverse clinical signs or microscopic findings indicative of local intolerance
